Data published in ChEMBL document CHEMBL1909046, “DrugMatrix in vitro pharmacology data”.

How the values were obtained:
[1] = molecular target: Sodium-dependent dopamine transporter (Homo sapiens, UniProt Q01959); test: DRUGMATRIX: Dopamine Transporter radioligand binding (ligand: [125I] RTI-55); type: cell membranes, CHO-K1, Membrane; settings: Not Active = under 50% inhibition at 10 µM
Glucocorticoid receptor = molecular target: T1, Glucocorticoid receptor (Homo sapiens, UniProt P04150); settings: hela s3; also: in other assays of this panel Not Active means under 50% inhibition at 10 µM
T1 sequence (P04150 whole entry): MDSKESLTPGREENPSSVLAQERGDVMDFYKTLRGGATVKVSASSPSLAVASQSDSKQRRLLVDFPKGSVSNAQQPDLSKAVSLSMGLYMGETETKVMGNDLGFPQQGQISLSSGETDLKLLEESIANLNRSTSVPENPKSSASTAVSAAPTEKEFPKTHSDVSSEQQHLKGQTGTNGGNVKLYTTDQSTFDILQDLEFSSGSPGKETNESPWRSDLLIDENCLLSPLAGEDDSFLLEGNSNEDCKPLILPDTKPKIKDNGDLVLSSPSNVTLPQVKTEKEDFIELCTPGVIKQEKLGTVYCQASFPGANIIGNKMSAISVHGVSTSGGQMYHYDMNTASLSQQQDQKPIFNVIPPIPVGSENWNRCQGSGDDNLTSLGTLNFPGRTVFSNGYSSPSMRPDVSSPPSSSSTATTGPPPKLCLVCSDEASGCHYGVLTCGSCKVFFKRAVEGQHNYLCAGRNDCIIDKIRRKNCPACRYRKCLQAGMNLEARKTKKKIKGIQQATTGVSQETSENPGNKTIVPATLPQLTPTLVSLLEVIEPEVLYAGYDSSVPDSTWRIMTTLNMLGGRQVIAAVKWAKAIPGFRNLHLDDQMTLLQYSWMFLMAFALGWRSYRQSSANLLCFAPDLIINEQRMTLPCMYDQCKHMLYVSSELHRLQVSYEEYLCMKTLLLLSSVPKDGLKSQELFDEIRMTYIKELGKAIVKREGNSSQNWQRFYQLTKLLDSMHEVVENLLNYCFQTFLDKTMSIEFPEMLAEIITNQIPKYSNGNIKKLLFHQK

Thromboxane-A synthase = molecular target: T2, Thromboxane-A synthase (Homo sapiens, UniProt P24557); test: biochemical; type: tissue-based, Platelet;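 also: enzyme inhibition assay with PGH2 supplied as substrate; in other assays of this panel Not Active means under 50% inhibition at 10 µM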
T2 sequence (P24557 whole entry): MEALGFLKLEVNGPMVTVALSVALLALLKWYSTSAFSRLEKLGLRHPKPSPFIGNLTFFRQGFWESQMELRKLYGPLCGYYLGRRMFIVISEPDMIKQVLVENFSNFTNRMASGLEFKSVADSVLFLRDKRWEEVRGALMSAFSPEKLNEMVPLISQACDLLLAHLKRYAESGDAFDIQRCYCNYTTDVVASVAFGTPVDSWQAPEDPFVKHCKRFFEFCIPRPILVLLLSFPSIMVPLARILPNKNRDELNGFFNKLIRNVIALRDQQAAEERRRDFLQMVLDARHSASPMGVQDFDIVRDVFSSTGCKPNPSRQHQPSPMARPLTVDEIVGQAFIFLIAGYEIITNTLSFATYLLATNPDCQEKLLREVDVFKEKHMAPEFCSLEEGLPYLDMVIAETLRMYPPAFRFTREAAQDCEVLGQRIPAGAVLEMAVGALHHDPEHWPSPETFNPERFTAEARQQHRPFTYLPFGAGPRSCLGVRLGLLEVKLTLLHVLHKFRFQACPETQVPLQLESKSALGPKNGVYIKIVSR

Estrogen receptor beta = Estrogen receptor beta (Homo sapiens, UniProt Q92731); settings: sf9; also: in other assays of this panel Not Active means under 50% inhibition at 10 µM
Estrogen receptor beta, sequence (Q92731 whole entry): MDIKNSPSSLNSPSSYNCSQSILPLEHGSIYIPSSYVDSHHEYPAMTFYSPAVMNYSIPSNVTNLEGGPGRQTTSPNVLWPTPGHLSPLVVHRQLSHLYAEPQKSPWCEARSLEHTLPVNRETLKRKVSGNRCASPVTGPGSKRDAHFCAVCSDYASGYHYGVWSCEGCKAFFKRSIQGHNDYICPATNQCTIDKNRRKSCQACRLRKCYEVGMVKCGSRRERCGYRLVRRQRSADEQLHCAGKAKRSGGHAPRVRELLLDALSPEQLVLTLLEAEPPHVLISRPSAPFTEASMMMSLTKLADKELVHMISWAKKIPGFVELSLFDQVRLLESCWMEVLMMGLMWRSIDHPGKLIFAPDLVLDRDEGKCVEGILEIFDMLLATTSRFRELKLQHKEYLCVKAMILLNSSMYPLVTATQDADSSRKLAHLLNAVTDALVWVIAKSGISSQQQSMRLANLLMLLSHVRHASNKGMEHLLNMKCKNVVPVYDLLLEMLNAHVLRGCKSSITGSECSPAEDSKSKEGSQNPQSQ

Adenosine receptor A2a = Adenosine receptor A2a (Homo sapiens, UniProt P29274); test: DRUGMATRIX: Adenosine A2A radioligand binding (ligand: […]); type: cell membranes, HEK293, Membrane; settings: Not Active = under 50% inhibition at 10 µM
Adenosine receptor A2a, sequence (P29274 whole entry): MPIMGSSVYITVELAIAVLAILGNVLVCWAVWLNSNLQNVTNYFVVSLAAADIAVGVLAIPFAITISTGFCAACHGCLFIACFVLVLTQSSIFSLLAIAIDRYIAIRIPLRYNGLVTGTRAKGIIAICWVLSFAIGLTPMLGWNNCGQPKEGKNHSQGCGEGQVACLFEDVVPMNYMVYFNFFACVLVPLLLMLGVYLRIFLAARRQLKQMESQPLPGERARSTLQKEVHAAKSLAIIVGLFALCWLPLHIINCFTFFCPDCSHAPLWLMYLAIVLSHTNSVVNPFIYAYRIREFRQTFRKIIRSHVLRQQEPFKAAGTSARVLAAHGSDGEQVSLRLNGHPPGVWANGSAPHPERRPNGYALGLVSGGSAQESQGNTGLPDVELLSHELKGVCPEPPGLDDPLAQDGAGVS

[2] = DRUGMATRIX: Platelet-Derived Growth Factor (PDGF) radioligand binding (ligand: [125I] PDGF); type: cell-based; settings: nih3t3; Not Active = under 50% inhibition at 10 µM
Melanocortin receptor 4 = Melanocortin receptor 4 (Homo sapiens, UniProt P32245); type: cell membranes, Membrane; settings: hek293; also: in other assays of this panel Not Active means under 50% inhibition at 10 µM
Melanocortin receptor 4, sequence (P32245 whole entry): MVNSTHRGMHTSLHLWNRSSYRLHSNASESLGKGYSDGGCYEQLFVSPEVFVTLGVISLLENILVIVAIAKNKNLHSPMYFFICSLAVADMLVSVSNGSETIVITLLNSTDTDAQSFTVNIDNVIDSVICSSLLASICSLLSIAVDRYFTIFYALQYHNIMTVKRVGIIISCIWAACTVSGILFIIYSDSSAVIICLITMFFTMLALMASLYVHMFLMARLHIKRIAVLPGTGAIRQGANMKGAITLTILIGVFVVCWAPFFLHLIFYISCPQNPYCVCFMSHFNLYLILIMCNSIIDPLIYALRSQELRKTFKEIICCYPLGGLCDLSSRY

[3] = molecular target: C-C chemokine receptor type 5 (Homo sapiens, UniProt P51681); type: cell membranes, Membrane; settings: hek293; also: in other assays of this panel Not Active means under 50% inhibition at 10 µM
C-C chemokine receptor type 5, sequence (P51681 whole entry): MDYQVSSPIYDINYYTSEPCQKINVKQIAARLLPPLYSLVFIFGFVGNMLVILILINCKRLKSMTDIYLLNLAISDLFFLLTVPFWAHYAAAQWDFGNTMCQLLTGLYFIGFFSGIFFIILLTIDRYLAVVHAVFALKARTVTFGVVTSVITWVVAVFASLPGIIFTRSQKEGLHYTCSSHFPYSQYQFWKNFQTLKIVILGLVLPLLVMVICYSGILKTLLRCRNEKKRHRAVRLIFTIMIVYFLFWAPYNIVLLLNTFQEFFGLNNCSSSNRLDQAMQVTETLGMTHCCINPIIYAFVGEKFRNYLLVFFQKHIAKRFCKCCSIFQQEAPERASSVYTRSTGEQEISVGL

D(3) dopamine receptor = D(3) dopamine receptor (Homo sapiens, UniProt P35462); test: DRUGMATRIX: Dopamine D3 radioligand binding (ligand: [3H] Spiperone); type: cell membranes, CHO, Membrane; settings: for Ki: read-out: Ki
D(3) dopamine receptor, sequence (P35462 whole entry): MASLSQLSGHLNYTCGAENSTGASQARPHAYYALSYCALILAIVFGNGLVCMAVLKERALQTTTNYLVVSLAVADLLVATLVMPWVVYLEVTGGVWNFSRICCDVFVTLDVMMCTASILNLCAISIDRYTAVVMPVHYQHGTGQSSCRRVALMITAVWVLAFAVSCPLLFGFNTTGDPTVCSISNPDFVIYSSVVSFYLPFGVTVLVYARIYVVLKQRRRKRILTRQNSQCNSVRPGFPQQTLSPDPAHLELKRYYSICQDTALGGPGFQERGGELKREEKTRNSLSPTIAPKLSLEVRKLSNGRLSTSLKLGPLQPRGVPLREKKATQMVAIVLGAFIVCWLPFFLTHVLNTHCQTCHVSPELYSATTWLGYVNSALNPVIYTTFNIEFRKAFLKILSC

[4] = molecular target: T3, Muscarinic acetylcholine receptor M4 (Homo sapiens, UniProt P08173); type: cell membranes, CHO-K1, Membrane; settings: cho-k1; also: in other assays of this panel Not Active means under 50% inhibition at 10 µM
T3 sequence (P08173 whole entry): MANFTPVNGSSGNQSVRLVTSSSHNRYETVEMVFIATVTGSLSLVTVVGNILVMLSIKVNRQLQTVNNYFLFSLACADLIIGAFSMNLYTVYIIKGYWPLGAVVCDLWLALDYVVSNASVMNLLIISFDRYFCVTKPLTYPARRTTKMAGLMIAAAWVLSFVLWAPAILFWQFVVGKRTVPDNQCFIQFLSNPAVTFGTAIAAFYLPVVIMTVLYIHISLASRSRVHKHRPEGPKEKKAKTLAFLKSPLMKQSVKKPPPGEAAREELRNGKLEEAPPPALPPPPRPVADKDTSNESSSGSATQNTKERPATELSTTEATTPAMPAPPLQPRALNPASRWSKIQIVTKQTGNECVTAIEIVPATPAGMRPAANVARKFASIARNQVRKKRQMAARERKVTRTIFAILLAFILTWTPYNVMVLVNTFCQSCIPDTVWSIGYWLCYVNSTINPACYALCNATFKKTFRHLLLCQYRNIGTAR

[5] = DRUGMATRIX: Sodium/nucleoside co-transporter radioligand binding (ligand: nitrobenzylthioinosine); type: cell membranes, Cavia porcellus, Dunkin-Hartley, Cerebral cortex, Membrane; settings: Not Active = under 50% inhibition at 10 µM
[6] = DRUGMATRIX: Purinergic P2X radioligand binding (ligand: [3H] alpha, beta-Methylene-ATP); type: cell membranes, Oryctolagus cuniculus, New Zealand albino, Urinary bladder, Membrane; settings: Not Active = under 50% inhibition at 10 µM
[7] = DRUGMATRIX: Glutamate, AMPA radioligand binding (ligand: [3H] AMPA); type: cell membranes, Rattus norvegicus, Wistar, Cerebral cortex, Membrane; settings: Not Active = under 50% inhibition at 10 µM
Cytochrome P450 2D6 = Cytochrome P450 2D6 (Homo sapiens, UniProt P10635); settings: bti-tn-5b1-4; also: in other assays of this panel Not Active means under 50% inhibition at 10 µM
Cytochrome P450 2D6, sequence (P10635 whole entry): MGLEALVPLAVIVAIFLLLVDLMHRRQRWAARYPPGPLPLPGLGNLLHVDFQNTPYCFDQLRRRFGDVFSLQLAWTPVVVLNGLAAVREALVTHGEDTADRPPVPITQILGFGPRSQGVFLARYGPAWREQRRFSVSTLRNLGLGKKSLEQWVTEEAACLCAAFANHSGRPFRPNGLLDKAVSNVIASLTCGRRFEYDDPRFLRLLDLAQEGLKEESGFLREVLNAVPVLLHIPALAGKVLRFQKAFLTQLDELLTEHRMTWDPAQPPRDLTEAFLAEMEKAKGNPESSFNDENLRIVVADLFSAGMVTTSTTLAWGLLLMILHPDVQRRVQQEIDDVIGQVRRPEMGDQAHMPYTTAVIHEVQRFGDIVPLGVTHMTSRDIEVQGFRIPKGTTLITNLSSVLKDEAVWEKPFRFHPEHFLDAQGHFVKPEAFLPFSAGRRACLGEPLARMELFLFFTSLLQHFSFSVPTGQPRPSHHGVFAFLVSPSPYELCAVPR

Sodium-dependent dopamine transporter, sequence (Q01959 whole entry): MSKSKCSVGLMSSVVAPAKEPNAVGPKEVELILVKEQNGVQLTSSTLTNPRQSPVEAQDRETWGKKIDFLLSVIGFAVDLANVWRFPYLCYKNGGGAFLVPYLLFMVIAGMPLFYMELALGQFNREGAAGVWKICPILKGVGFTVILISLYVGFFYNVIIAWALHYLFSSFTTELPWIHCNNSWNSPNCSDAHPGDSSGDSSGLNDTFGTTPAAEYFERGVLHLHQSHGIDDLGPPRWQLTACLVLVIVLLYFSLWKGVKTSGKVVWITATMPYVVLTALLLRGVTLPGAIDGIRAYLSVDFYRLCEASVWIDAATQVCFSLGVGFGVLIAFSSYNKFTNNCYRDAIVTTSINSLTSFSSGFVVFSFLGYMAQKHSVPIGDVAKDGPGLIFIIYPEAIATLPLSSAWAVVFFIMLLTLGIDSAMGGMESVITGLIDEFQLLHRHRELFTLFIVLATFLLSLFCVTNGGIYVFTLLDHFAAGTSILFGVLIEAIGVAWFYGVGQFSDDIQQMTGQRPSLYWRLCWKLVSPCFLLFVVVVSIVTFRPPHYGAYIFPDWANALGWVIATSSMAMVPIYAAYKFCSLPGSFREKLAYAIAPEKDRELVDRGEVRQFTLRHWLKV

Compound	IC50 ([1]; cho-k1)	IC50 (Glucocorticoid receptor)	IC50 (Thromboxane-A synthase; platelet)	IC50 (Estrogen receptor beta)	IC50 (Adenosine receptor A2a; hek293)	IC50 [2]	Ki [2]	IC50 (Melanocortin receptor 4)	IC50 [3]	IC50 (D(3) dopamine receptor; cho)	IC50 [4]	IC50 [5]	Ki [5]	IC50 [6]	Ki [6]	IC50 [7]	Ki [7]	IC50 (Cytochrome P450 2D6)	Ki (Cytochrome P450 2D6)	other results
CC(C)NC[C@H](O)COc1cccc2[nH]ccc12	Not Active	Not Active	Not Active	Not Active	Not Active	Not Active	Not Active	Not Active	Not Active	Not Active	Not Active	Not Active	Not Active	Not Active	Not Active	Not Active	Not Active	–	–	–
NCC(=O)O [GLYCINE]	Not Active	Not Active	Not Active	Not Active	Not Active	Not Active	Not Active	Not Active	Not Active	Not Active	Not Active	Not Active	Not Active	Not Active	Not Active	Not Active	Not Active	–	–	–
CNCCC=C1c2ccccc2CCc2ccccc21 [NORTRIPTYLINE]	–	Not Active	Not Active	Not Active	Not Active	Not Active	Not Active	Not Active	Not Active	–	–	Not Active	Not Active	Not Active	Not Active	Not Active	Not Active	–	–	IC50 ([1]; read-out: IC50): 1.68 µM; Ki ([1]; read-out: Ki): 1.33 µM; IC50 (D(3) dopamine receptor; read-out: IC50): 0.179 µM; Ki (D(3) dopamine receptor): 0.061 µM
CCCCOC(=O)c1ccc(N)cc1 [BUTAMBEN]	Not Active	Not Active	Not Active	Not Active	Not Active	Not Active	Not Active	Not Active	Not Active	Not Active	Not Active	Not Active	Not Active	Not Active	Not Active	Not Active	Not Active	–	–	–
O=C(O)c1cn(C2CC2)c2cc(N3CCNCC3)c(F)cc2c1=O [CIPROFLOXACIN]	Not Active	Not Active	Not Active	Not Active	Not Active	Not Active	Not Active	Not Active	Not Active	Not Active	Not Active	Not Active	Not Active	Not Active	Not Active	Not Active	Not Active	–	–	–
O=C1OCCN1/N=C/c1ccc([N+](=O)[O-])o1 [FURAZOLIDONE]	Not Active	Not Active	Not Active	Not Active	Not Active	Not Active	Not Active	Not Active	Not Active	Not Active	Not Active	Not Active	Not Active	Not Active	Not Active	Not Active	Not Active	–	–	–
Oc1c(Cl)cc(Cl)cc1Sc1cc(Cl)cc(Cl)c1O [BITHIONOL]	–	Not Active	–	Not Active	–	Not Active	Not Active	Not Active	Not Active	–	Not Active	Not Active	Not Active	Not Active	Not Active	Not Active	Not Active	Not Active	Not Active	IC50 (Thromboxane-A synthase; read-out: IC50): 1.84 µM; IC50 (Adenosine receptor A2a; read-out: IC50): 1.17 µM; Ki (Adenosine receptor A2a; read-out: Ki): 0.655 µM; IC50 (D(3) dopamine receptor; read-out: IC50): 4.22 µM; Ki (D(3) dopamine receptor): 1.43 µM
CC(=O)O[C@]1(C(C)=O)CC[C@H]2[C@@H]3C=C(Cl)C4=CC(=O)CC[C@]4(C)[C@H]3CC[C@@]21C [CHLORMADINONE ACETATE]	Not Active	–	Not Active	Not Active	Not Active	Not Active	Not Active	Not Active	Not Active	Not Active	Not Active	Not Active	Not Active	Not Active	Not Active	Not Active	Not Active	Not Active	Not Active	–
CN1CCC[C@H]1c1cccnc1 [NICOTINE]	Not Active	–	Not Active	Not Active	Not Active	Not Active	Not Active	Not Active	Not Active	Not Active	Not Active	Not Active	Not Active	Not Active	Not Active	Not Active	Not Active	Not Active	Not Active	–
